Patent US20230310634A1, “ANTI-HUMAN VISTA ANTIBODIES AND USE THEREOF” (IMMUNEXT, INC., priority 2020, published 2023)
“Also recorded” adds a separate entry of the source.

Key:
[1] = tested on: FKBP5; experiment: FKBP5 transcription in peritoneal resident macrophages and spleen monocytes after in vivo treatment; design: species or system mice; conditions: from other studies (previous example)
Description: ADCs were then injected from 17 h to 7 days before mouse euthanasia and cell isolation.
After euthanasia, mice were injected in the peritoneal cavity with 7 ml of PBS/0.5% BSA/2 mM EDTA. After a brief massage of the peritoneum, a small incision was performed and the peritoneal lavage collected. PRM were isolated using negative selection (Miltenyi kit, ref 130-110-434). Spleen were dissected and dissociated mechanically; monocytes were isolated using […] (Stem Cell, EasySep™ Mouse CD11 b Positive Selection Kit II).
Cell pellets from different tissues were resuspended in 0.4 ml RNeasy lysis buffer from RNeasy Plus Mini kit (Qiagen, PN: 74136) and homogenize with 20G needle for 5 times. RNA was isolated following manufacturer's instructions and RNA eluted in […] H2O (RNase/DNase free). RNA concentration was assessed on Nanodrop.
Reverse transcription was done using Taqman reverse transcription reagents (#N8080234) and following manufacturer's instructions. Quantitative Real-Time PCR was done using Taqman master mix 2× kit (#4369016) and Taqman primers for mouse FKBP5 (Mm00487401_m1), and mouse HPRT as housekeeping gene (Mm446968_m1) and run on a QuantStudio3 from Applied Biosystem. […]

[2] = Plasma corticosterone levels after repeated treatment; format: in vivo, mice; conditions: bleed on day 5
Description: Based on the foregoing we assessed the impact of long-term treatment with an exemplary antibody drug conjugate (ADC) INX201J, and an anti-human VISTA monoclonal antibody linked to a glucocorticoid (GC) payload, on the HPA axis, specifically the corticosterone basal levels. […] The experiment was performed in female mice that were first acclimated for a week to a specific handler that would carry subsequently all injections and bleed to limit stress-induced changes in basal level of GC.
On day 5, mice were bled and their corticosterone levels assessed by ELISA.
The experiment was performed in female hVISTA KI mice. […] A control group was included that received daily PBS injections. On day 5, mice were bled and their plasma corticosterone levels assessed by ELISA.
The ELISA was conducted following the manufacturer's included protocol using Arbor Assays (cat #K014-H5) Corticosterone 5 pack ELISA Kit.

[3] = tested on: LPS stimulated human PBMCs; experiment: In vitro potency of steroid payloads in LPS stimulated human PBMCs (IL-1β, IL-6 ELISA); format: cell-based
[4] = tested on: FKBP5; experiment: FKBP5 transcriptional activation in isolated human Tregs (qRT-PCR); format: cell-based; conditions: Experiment 3; 20 nM payload or molar equivalent; 2 donors
Excerpt: (§1) To monitor/confirm GC delivery and activity, we measured by quantitative Real Time PCR (qRT-PCR) the transcriptional activation of FKBP5 that is a direct and robust biomarker of glucocorticoid activity (JCEM 101: 4305-4312, 2016). We conducted this assessment on isolated human monocytes, regulatory T cells (T regs) and B cells following in vitro treatment with ADCs.
For monocytes vs B cell analyses, one blood donor collection was used for the single drug concentration experiment; blood from a separate single donor collection was used to assess drug dose response. For the regulatory T cell (Treg) analysis, blood from two separate donors was used.
(§2) The various immune populations were isolated using different cell isolation kits and following manufacturer instructions: • EasySep Human monocyte enrichment kit without CD16 depletion (StemCell cat #19058) • Pan B cell isolation kit, human (Miltenyi Biotec, 130-101-638) • EasySep™ Human CD4^+ CD127 low CD49d− regulatory T cell enrichment Kit (StemCell cat #19232) […]
(§3) After one wash with PBS, RNA was isolated from cell pellets using either the RNeasy Plus Mini kit (Qiagen, PN: 74136) or NucleoSpin RNA Plus (Macherey-Nagel #740984.250). […] RNA concentration was assessed by UV spectroscopy using a Nanodrop 2000. […]
(§4) Quantitative Real-Time PCR was done using Taqman master mix 2× kit (#4369016) and run on a QuantStudio3 from Applied Biosystem. […]

[5] = mouse, in vivo; cited from earlier work
[6] = tested on: FKBP5; experiment: FKBP5 transcriptional activation in isolated human monocytes (qRT-PCR); format: cell-based; conditions: Experiment 1; 20 nM payload or molar equivalent; 1 day; relative to no-treatment control
Excerpt: as §1
(§5) Monocytes or B cells were isolated from healthy donor blood samples and treated with free steroid, anti-VISTA conjugated steroid, or conjugated isotype control. RNA was isolated, and change in FKBP5 transcript level assessed by qPCR.
as §2, §3, §4

[7] = tested on: FKBP5; experiment: FKBP5 transcriptional activation in isolated human B cells (qRT-PCR); format: cell-based; conditions: Experiment 1; 20 nM payload or molar equivalent; 1 day; relative to no-treatment control
Excerpt: as §1, §5, §2, §3, §4

With `C[C@@H]1C[C@H]2[C@@H]3CCC4=CC(=O)C=C[C@]4(C)[C@@]3(F)[C@@H](O)C[C@]2(C)[C@@]1(O)C(=O)CO` [Dex, Dexamethasone] the pharmacodynamic range [1] was less than 24 h, the “basal plasma corticosterone levels” value ([2]; Dex 0.2 mg/Kg daily for 4 days) was “limited though significant impact” and the “basal plasma corticosterone levels” value ([2]; Dex 2 mg/Kg daily for 4 days) was “dramatically decreased”.
For `C[C@]12C=CC(=O)C=C1CC[C@@H]1[C@@H]2[C@@H](O)C[C@@]2(C)[C@H]1C[C@H]1O[C@@H](c3ccc(CC45CC(N)(C4)C5)cc3)O[C@]12C(=O)CO` [INX-SM-3, (6aR,6bS,7S,8aS,8bS,10R,11aR,12aS,12bS)-10-(4-((3-aminobicyclo[1.1.1]pentan-1-yl)methyl)phenyl)-7-hydroxy-8b-(2-hydroxyacetyl)-6a,8a-dimethyl-1,2,6a,6b,7,8,8a,8b,11a,12,12a,12b-dodecahydro-4H-naphtho[2′,1′:4,5]indeno[1,2-d][1,3]dioxol-4-one], the “steroid potency as free payloads in LPS-activated human PBMCS (conclusions)” value [3] was “varying degrees of dose dependent steroid potency”, the “potency relative to the other compounds of the experiment” value ([3]; 1 ng/mL LPS, 24 hr) was “most potent compound among these three; also recorded: most potent compound among these compounds tested” and the “IL-1β and IL-6 production” value ([3]; Experiment 1, 1000-1 nM, 1 ng/mL LPS, 24 hr, n=1 donor) was “inhibit both IL-1β and IL-6 production”. The IL-1β production ([3]; Experiment 2, 1000-1 nM, 1 ng/mL LPS, 24 hr, n=1 donor) was “show inhibition in IL-1β production” and the “FKBP5 transcription in Tregs” value [4] was “increased FKBP5 transcription”.
For `C[C@@H]1C[C@H]2[C@@H]3CCC4=CC(=O)C=C[C@]4(C)[C@@]3(F)[C@@H](O)C[C@]2(C)[C@@]1(O)C(=O)CO` [dexamethasone], the “toxicity in this IBD model (literature)” value [5] is given as “causes toxicity in this IBD model”.
For `C[C@]12C=CC(=O)C=C1CC[C@@H]1[C@@H]2[C@@H](O)C[C@@]2(C)[C@H]1C[C@H]1O[C@@H](c3ccc(Cc4cccc(N)c4)cc3)O[C@]12C(=O)CO` [free J payload], the “FKBP5 transcription in monocytes” value [6] was “robust increase in FKBP5 transcription” and the “FKBP5 transcription in B cells” value [7] was “robust increase in FKBP5 transcription”.
